According to patent US7361679B2, “2-phenyl-3-heteroarylpropionic acid derivative or salt thereof and medicine containing the same” (Kaken Pharmaceutical Co., Ltd., priority 2001, dated 2008):

How the values were obtained:
VLA-4/VCAM-1 = molecular target: T1, VLA-4/VCAM-1 (Homo sapiens, UniProt P05556+P13612); test: VLA-4/VCAM-1 adhesion inhibition test (BCECF-labelled HL-60 cells adhering to VCAM-1 expressing CHO cells); assay type: cell-based; conditions: adhesion of VLA-4 expressing HL-60 cells to CHO cells transfected with human VCAM-1 gene; read-out: 50% inhibition concentration
T1 construct: endogenous in cells; host or cells: HL-60 cells (VLA-4, endogenous); CHO cells transfected with a human VCAM-1 gene (the ligand VCAM-1)
Method: Test Example 1 VLA-4/VCAM-1 Adhesion Inhibition Test
The above VCAM-1 expressing CHO cells were placed in a 96-well culture plate in amount of 7×10^3 cells per well and cultured in Ham's F-12 medium containing 10 wt % fetal calf serum (FCS) for 3 days until a confluent state was satisfied. The HL-60 cells were re-floated in Hanks' solution containing 0.4 wt % bovine serum albumin (BSA), and 5 μM of 2′,7′-bis(carboxyethyl)-5(6)-carboxyfluorescein penta acetoxy methyl ester (BCECF-AM) was added to label the cells. Solutions having various concentrations of each test substance and having an amount of 20 μl each were added to 180 μl each of suspensions of BCECF-labeled HL-60 cells re-floated at a rate of 4×10^6 cells/ml in the FCS-non-containing RPMI 1640 culture medium, and pre-treated at 37° C. for 15 minutes.
Then, the pre-treated HL-60 cells were stratified in the 96-well plate culturing the VCAM-1 expressing CHO cells at a rate of 2×10^5 cells per well, and allowed to adhere thereto at 37° C. for 5 minutes. Then, the plate was filled with 0.4 wt % BSA Hanks, covered with a plate sealer and turned upside down. Further, the cells were cultured for 45 minutes. After washing, 1 wt % NP-40-containing PBS was added to destroy the cells, and the thus-obtained supernatants were measured for fluorescence intensity with a cyto Fluor 2300 fluorescence measurement system (supplied by Millipore).
Further, as a blank, 1 wt % NP-40-containing PBS was measured for fluorescence intensity. Further, as standards, a fluorescence-labeled HL-60 floating liquid was added to 1 wt % NP-40-containing PBS at a rate of 2×10^5, 10^5, 2×10^4 and 10^4 cells/ml, the cells were destroyed, and the thus-obtained supernatants were measured for fluorescence intensity.
Each test substance was measured as described above, and on the basis of the calibration curve prepared from the measurements of the standard, cells in a control and cells adhering to the VCAM-1 expressive CHO cells due to the addition of the test substances were measured for numbers, and cell adhesion inhibition ratios (%) were calculated on the basis of the following equation.
Cell adhesion inhibition ratio (%)=100×[1−(number of adhered cells of groups to which the test substance was added/number of adhered cells of control groups)

LPAM-1/VCAM-1 = molecular target: T2, LPAM-1/VCAM-1 (Homo sapiens, UniProt P13612+P26010); test: LPAM-1/VCAM-1 adhesion inhibition test; assay type: cell-based
T2 sequence (P13612 34-1032): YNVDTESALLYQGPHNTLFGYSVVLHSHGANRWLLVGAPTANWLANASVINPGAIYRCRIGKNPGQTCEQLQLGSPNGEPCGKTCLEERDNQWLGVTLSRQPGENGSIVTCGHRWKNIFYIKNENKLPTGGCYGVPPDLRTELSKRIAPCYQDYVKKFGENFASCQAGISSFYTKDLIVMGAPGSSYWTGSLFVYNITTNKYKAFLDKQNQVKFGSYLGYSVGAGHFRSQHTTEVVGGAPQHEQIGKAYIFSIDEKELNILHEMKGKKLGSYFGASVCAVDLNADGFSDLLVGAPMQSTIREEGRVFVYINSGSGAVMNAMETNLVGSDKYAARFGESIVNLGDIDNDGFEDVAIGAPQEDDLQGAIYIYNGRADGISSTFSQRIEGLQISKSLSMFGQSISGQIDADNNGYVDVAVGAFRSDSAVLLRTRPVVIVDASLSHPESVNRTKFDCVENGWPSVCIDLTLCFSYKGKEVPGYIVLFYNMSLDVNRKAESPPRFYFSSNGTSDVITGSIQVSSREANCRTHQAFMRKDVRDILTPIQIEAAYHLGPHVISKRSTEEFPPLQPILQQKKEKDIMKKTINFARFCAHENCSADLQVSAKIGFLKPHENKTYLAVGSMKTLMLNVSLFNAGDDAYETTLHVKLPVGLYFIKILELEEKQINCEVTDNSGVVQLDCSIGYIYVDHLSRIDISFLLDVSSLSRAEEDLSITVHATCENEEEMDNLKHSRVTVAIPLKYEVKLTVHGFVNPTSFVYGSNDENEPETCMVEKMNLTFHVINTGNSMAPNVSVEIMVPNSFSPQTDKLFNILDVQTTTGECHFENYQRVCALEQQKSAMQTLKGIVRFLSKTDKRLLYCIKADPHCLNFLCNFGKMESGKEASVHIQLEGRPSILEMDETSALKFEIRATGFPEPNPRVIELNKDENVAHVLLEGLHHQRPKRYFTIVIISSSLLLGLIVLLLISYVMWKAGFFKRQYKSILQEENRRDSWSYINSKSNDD
T2 sequence (P26010 20-798): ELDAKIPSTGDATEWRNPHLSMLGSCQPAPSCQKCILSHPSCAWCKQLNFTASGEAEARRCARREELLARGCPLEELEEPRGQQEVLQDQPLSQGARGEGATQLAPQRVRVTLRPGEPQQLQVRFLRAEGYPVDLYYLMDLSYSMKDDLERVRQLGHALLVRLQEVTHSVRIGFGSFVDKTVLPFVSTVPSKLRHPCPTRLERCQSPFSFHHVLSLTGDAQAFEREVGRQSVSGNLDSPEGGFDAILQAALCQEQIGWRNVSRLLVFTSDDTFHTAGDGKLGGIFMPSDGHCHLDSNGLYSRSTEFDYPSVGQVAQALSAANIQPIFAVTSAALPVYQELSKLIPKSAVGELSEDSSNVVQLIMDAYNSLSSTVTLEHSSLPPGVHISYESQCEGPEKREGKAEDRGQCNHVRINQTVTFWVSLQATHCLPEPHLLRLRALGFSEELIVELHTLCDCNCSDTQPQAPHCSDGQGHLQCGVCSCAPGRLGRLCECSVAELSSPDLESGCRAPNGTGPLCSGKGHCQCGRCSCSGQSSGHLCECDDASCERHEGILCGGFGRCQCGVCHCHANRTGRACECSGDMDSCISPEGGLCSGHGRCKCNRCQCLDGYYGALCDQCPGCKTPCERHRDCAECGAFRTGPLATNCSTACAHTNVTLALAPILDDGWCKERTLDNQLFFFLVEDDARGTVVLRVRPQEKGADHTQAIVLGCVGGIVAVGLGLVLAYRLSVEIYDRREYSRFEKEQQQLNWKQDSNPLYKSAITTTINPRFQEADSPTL

T1 sequence (P05556 21-798, one chain of several): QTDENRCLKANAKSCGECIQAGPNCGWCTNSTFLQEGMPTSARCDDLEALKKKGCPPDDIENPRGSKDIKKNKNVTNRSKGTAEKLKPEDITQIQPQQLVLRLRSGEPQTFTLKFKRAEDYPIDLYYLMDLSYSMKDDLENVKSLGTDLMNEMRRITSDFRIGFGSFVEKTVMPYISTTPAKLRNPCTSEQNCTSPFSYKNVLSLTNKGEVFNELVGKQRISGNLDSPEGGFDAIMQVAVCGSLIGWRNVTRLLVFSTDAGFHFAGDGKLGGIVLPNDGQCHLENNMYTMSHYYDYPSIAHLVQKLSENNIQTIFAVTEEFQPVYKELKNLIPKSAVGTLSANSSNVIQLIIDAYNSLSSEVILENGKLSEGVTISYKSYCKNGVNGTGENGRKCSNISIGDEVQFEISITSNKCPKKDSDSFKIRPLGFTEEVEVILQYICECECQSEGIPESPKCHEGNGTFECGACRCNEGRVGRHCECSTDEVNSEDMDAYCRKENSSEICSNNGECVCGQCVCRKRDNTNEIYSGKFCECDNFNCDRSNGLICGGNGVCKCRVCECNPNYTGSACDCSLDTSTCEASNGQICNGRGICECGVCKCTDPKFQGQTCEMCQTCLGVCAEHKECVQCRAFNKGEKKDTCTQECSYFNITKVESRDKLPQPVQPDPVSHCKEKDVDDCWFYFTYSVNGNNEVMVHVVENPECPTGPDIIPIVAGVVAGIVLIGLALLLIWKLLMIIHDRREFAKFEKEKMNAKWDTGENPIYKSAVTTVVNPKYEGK

SMILES	IC50 (VLA-4/VCAM-1) [nM]	adhesion inhibition activity (LPAM-1/VCAM-1)
CCOc1ccc(C(Cc2ccc(NC(=O)c3c(Cl)cccc3Cl)nc2)C(=O)O)cc1N(CC(C)C)C(=O)C(C)C (centres unmarked) [Example 5]	48	–
CCOc1ccc(C(Cc2ccc(NC(=O)c3c(Cl)cccc3Cl)nc2)C(=O)O)cc1N(CC(C)C)C(=O)C(CC)CC (centres unmarked) [Example 7]	7.3	–
COc1ccc(C(Cc2ccc(NC(=O)c3c(Cl)cncc3Cl)nc2)C(=O)O)cc1N(CC(C)C)C(=O)C(C)(C)C (centres unmarked) [Example 9]	2.8	adhesion inhibition activity was found
CCC(CC)C(=O)N(CC(C)C)c1cc(C(Cc2ccc(NC(=O)c3c(Cl)cccc3Cl)nc2)C(=O)O)ccc1OC (centres unmarked) [Example 3]	33	–
COc1ccc(C(Cc2ccc(NC(=O)c3c(Cl)cccc3Cl)nc2)C(=O)O)cc1N(CC(C)C)C(=O)C(C)C (centres unmarked) [Example 2]	12	–

Now from value to compound:

IC50 (VLA-4/VCAM-1) [nM]	adhesion inhibition activity (LPAM-1/VCAM-1)	SMILES
13	–	CCOc1ccc(C(Cc2ccc(NC(=O)c3c(Cl)cccc3Cl)nc2)C(=O)O)cc1N(CC(C)C)C(=O)C(C)(C)C (centres unmarked) [Example 6]
3	adhesion inhibition activity was found	COc1ccc(C(Cc2ccc(NC(=O)c3c(Cl)cccc3Cl)nc2)C(=O)O)cc1N(CC(C)C)C(=O)C(C)(C)C (centres unmarked) [Example 1, 3-[2-(2,6-dichlorobenzoylamino)pyrid-5-yl]-2-{3-[(2,2-dimethylpropionyl)isobutylamino]-4-methoxyphenyl}propionic acid]
1.2	adhesion inhibition activity was found	CCOc1ccc(C(Cc2ccc(NC(=O)c3c(Cl)cncc3Cl)nc2)C(=O)O)cc1N(CC(C)C)C(=O)C(C)(C)C (centres unmarked) [Example 10]
